From US20090247559A1 (Exelixis, Inc., priority 2007, published 2009) come the findings set out here.

In one assay the target is CK2 (Homo sapiens, UniProt P68400). Briefly: CK2 inhibition, biochemical chemiluminescence holoenzyme assay (Kinase Glo, IC50 determination). The following applies: Table 1 activity class; symbol given only if active; read-out: CK2 IC50 (Activity C). Summed up: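 Holoenzyme CK2 assay; compounds pre-incubated with substrate and enzyme, then reacted 150 min at 24-27° C. Remaining ATP measured as luminescence with Kinase Glo, and IC50 derived from the signal.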

Assay [1] deals with PIM (PIM-1, PIM-2, and/or PIM-3). Briefly: PIM-1, PIM-2 and PIM-3 inhibition, biochemical chemiluminescence assays (Kinase Glo, IC50 determination). The following applies: Table 1 activity class; PIM refers to PIM-1, PIM-2, and/or PIM-3; read-out: PIM IC50 (Activity B).
A further assay has as its target CDC7 (Homo sapiens, UniProt O00311). Briefly: CDC7 inhibition, biochemical chemiluminescence assay (Kinase Glo, IC50 determination). Summed up:
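CDC7 enzyme preincubated with compound 10 min at ambient temperature, then ATP mix in Tris Base added; reaction 90 min at 24-27 °C. Remaining ATP quantified by Kinase Glo luminescence to give IC50.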

[2] abbreviates: Table 1 activity class, symbol given only if active, read-out: CDC7 IC50 (Activity A).
[3] abbreviates: compounds in Table 1, read-out: CDC7 IC50 value.

Each structure is given as a SMILES string. Like-named read-outs stand apart in the source and are kept apart here.

CDC7, sequence (O00311 whole entry): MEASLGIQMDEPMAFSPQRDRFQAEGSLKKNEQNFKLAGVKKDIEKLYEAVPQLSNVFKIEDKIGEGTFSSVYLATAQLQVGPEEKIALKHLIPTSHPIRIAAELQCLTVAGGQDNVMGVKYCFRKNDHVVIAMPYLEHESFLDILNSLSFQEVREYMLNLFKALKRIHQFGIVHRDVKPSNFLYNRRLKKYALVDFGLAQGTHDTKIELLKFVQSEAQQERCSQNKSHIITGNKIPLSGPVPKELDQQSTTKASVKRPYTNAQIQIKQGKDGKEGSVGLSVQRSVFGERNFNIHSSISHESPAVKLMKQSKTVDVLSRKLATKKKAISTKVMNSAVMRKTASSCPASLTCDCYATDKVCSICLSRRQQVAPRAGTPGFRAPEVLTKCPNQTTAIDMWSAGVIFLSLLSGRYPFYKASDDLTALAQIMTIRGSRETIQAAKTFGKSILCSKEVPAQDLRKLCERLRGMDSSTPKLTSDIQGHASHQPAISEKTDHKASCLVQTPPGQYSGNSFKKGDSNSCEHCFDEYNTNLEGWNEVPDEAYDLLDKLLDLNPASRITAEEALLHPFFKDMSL
CDC7, sequence (Q9UBU7 whole entry partner): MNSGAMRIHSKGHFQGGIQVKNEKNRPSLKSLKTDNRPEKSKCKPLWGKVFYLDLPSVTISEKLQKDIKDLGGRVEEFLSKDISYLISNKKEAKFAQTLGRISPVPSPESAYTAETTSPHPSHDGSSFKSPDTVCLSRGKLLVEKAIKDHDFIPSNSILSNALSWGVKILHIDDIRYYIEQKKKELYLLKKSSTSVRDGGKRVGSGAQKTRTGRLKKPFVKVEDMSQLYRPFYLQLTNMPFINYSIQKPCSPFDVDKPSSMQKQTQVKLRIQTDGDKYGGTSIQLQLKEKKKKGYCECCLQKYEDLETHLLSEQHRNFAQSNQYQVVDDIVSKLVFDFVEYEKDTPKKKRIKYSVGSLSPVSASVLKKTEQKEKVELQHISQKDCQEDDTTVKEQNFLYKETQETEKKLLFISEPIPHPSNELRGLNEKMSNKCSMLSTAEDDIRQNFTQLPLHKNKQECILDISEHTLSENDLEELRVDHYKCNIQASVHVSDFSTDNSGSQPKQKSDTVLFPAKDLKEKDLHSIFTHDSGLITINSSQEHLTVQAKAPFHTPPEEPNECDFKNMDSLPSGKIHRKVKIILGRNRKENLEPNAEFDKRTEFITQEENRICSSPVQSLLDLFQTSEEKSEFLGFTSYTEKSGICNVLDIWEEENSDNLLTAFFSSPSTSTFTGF
CK2, sequence (P68400 whole entry): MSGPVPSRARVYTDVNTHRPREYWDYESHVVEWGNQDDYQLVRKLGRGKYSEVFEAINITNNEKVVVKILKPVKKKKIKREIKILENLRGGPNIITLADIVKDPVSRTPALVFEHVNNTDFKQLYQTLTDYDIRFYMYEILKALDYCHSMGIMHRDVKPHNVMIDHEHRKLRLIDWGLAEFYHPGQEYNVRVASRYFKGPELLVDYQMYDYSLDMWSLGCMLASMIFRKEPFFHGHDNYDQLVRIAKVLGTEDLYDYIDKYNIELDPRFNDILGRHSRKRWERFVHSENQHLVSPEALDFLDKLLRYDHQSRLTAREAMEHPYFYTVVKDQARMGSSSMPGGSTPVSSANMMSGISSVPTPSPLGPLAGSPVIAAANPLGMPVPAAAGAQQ
CK2, sequence (P67870 whole entry partner): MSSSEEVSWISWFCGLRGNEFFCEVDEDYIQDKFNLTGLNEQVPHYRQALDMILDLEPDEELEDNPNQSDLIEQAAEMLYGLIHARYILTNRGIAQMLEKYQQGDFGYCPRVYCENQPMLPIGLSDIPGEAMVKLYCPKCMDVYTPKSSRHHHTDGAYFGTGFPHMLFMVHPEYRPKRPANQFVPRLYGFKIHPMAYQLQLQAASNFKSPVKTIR

`CCC1(O)CCN(Cc2nc3c(oc4ccc(Br)cc43)c(=O)[nH]2)C1` (stereo not drawn) [Compound 407, 8-bromo-2-[(3-ethyl-3-hydroxypyrrolidin-1-yl)methyl][1]benzofuro[3,2-d]pyrimidin-4(3H)-one]: the IC50 at CK2 was less than 10 µM; in assay [1] it was less than 10 µM; on CDC7 (setting [2]), less than 10 µM; at CDC7 (setting [3]), less than 0.1 µM.
Take `CO[C@@H]1CCN(Cc2nc3c(oc4ccc(Br)cc43)c(=O)[nH]2)C1` [Compound 408, 8-bromo-2-{[(3R)-3-(methyloxy)pyrrolidin-1-yl]methyl}[1]benzofuro[3,2-d]pyrimidin-4(3H)-one]: the IC50 on CK2 was less than 10 µM; in assay [1], less than 10 µM; at CDC7 (setting [2]), less than 10 µM; at CDC7 (setting [3]), less than 0.1 µM.
Regarding `O=c1[nH]c(CN2CC3CCC2C3O)nc2c1oc1ccc(Br)cc12` (stereo not drawn) [Compound 412, 8-bromo-2-[(7-hydroxy-2-azabicyclo[2.2.1]hept-2-yl)methyl][1]benzofuro[3,2-d]pyrimidin-4(3H)-one], the IC50 at CK2 was less than 10 µM; in assay [1], less than 10 µM; on CDC7 (setting [2]) it was less than 10 µM; at CDC7 (setting [3]) it was less than 0.1 µM.
As for `O=c1[nH]c(CN2CC3CCC2[C@H]3O)nc2c1oc1ccc(Br)cc12` (stereo partly drawn) [Compound 413, 8-bromo-2-{[(7S)-7-hydroxy-2-azabicyclo[2.2.1]hept-2-yl]methyl}[1]benzofuro[3,2-d]pyrimidin-4(3H)-one], the IC50 on CK2 was less than 10 µM; in assay [1] it was less than 10 µM; at CDC7 (setting [2]), less than 10 µM; on CDC7 (setting [3]) it was less than 0.1 µM.
`Cc1cc2oc3c(=O)[nH]c(CN4CC[C@H](O)C4)nc3c2cc1Br` [Compound 420, 8-bromo-2-{[(3S)-3-hydroxypyrrolidin-1-yl]methyl}-7-methyl[1]benzofuro[3,2-d]pyrimidin-4(3H)-one]: the IC50 (on CK2; in assay [1]; on CDC7 (setting [2])) was less than 10 µM throughout.
Turning to `CNCc1ccc(-c2nc3c(oc4ccc(Br)cc43)c(=O)[nH]2)c(Cl)c1` [Compound 422, 8-bromo-2-{2-chloro-4-[(methylamino)methyl]phenyl}[1]benzofuro[3,2-d]pyrimidin-4(3H)-one], the IC50 (at CK2; in assay [1]; on CDC7 (setting [2])) was less than 10 µM in each case.
`CN1[C@@H]2CC[C@H]1CN(Cc1nc3c(oc4ccc(Br)cc43)c(=O)[nH]1)CC2` [Compound 425, 8-bromo-2-{[(1S,6R)-9-methyl-3,9-diazabicyclo[4.2.1]non-3-yl]methyl}[1]benzofuro[3,2-d]pyrimidin-4(3H)-one]: the IC50 (at CK2; in assay [1]; at CDC7 (setting [2])) was less than 10 µM in each case.
On to `CN1CCCN(Cc2nc3c(oc4ccc(Br)cc43)c(=O)[nH]2)CC1` [Compound 426, 8-bromo-2-[(4-methyl-1,4-diazepan-1-yl)methyl][1]benzofuro[3,2-d]pyrimidin-4(3H)-one], for which the half-maximal inhibitory concentration (IC50) on CK2 was less than 10 µM; in assay [1], less than 10 µM; on CDC7 (setting [2]) it was less than 10 µM; at CDC7 (setting [3]), less than 0.1 µM.
`O=c1[nH]c(-c2ccc(CNC3CCCCC3)cc2Cl)nc2c1oc1ccc(Br)cc12` [Compound 427, 8-bromo-2-{2-chloro-4-[(cyclohexylamino)methyl]phenyl}[1]benzofuro[3,2-d]pyrimidin-4(3H)-one]: the IC50 (at CK2; in assay [1]; at CDC7 (setting [2])) was less than 10 µM throughout.
With `COc1ccc(Br)c2oc3c(=O)[nH]c(CN4CC[C@H](O)C4)nc3c12` [Compound 428, 6-bromo-2-{[(3S)-3-hydroxypyrrolidin-1-yl]methyl}-9-(methyloxy)[1]benzofuro[3,2-d]pyrimidin-4(3H)-one], the IC50 (on CK2; in assay [1]; at CDC7 (setting [2])) was less than 10 µM each time.
As for `O=c1[nH]c(CN2CC[C@H](O)C2)nc2c1oc1ccc(Cl)cc12` [Compound 429, 8-chloro-2-{[(3S)-3-hydroxypyrrolidin-1-yl]methyl}[1]benzofuro[3,2-d]pyrimidin-4(3H)-one], the IC50 is less than 10 µM on CK2, less than 10 µM in assay [1], less than 10 µM at CDC7 (setting [2]) and less than 0.1 µM on CDC7 (setting [3]).
In the case of `CC(C)NCc1ccc(-c2nc3c(oc4ccc(Br)cc43)c(=O)[nH]2)c(Cl)c1` [Compound 430, 8-bromo-2-(2-chloro-4-{[(1-methylethyl)amino]methyl}phenyl)[1]benzofuro[3,2-d]pyrimidin-4(3H)-one], the half-inhibitory concentration (IC50) (at CK2; in assay [1]; on CDC7 (setting [2])) was less than 10 µM throughout.
As for `O=c1[nH]c(CN2CC[C@H](O)C2)nc2c1oc1ccc3cn[nH]c3c12` [Compound 432, 9-{[(3S)-3-hydroxypyrrolidin-1-yl]methyl}-1H-pyrimido[4′,5′:4,5]furo[2,3-g]indazol-7(8H)-one], the IC50 at CK2 is less than 10 µM; in assay [1], less than 10 µM; at CDC7 (setting [2]), less than 10 µM; at CDC7 (setting [3]) it was less than 0.1 µM.
Regarding `Cc1cc2c(cc1[N+](=O)O)oc1c(=O)[nH]c(CN3CC[C@H](O)C3)nc12` [Compound 433, hydroxy(2-{[(3S)-3-hydroxypyrrolidin-1-yl]methyl}-8-methyl-4-oxo-3,4-dihydro[1]benzofuro[3,2-d]pyrimidin-7-yl)oxoammonium], the IC50 (on CK2; in assay [1]; at CDC7 (setting [2])) was less than 10 µM each time.
Regarding `Cc1cc(Br)cc2c1oc1c(=O)[nH]c(CN3CC[C@H](O)C3)nc12` [Compound 434, 8-bromo-2-{[(3S)-3-hydroxypyrrolidin-1-yl]methyl}-6-methyl[1]benzofuro[3,2-d]pyrimidin-4(3H)-one], the IC50 (at CK2; in assay [1]; on CDC7 (setting [2])) was less than 10 µM throughout.
In the case of `CN1CCC(NCc2ccc(-c3nc4c(oc5ccc(Br)cc54)c(=O)[nH]3)c(Cl)c2)CC1` [Compound 435, 8-bromo-2-(2-chloro-4-{[(1-methylpiperidin-4-yl)amino]methyl}phenyl)[1]benzofuro[3,2-d]pyrimidin-4(3H)-one], the IC50 (at CK2; in assay [1]; at CDC7 (setting [2])) was less than 10 µM throughout.
For `CN1CCN(Cc2nc3c(oc4cc(O)c(Br)cc43)c(=O)[nH]2)CC1` [Compound 438, 8-bromo-7-hydroxy-2-[(4-methylpiperazin-1-yl)methyl][1]benzofuro[3,2-d]pyrimidin-4(3H)-one], the 50% inhibitory concentration (IC50) (at CK2; in assay [1]; at CDC7 (setting [2])) was less than 10 µM each time.
On to `Nc1ccc(C(=O)Nc2ccc(-c3nc4c(oc5ccc(Br)cc54)c(=O)[nH]3)c(Cl)c2)cn1` [Compound 439, 6-amino-N-[4-(8-bromo-4-oxo-3,4-dihydro[1]benzofuro[3,2-d]pyrimidin-2-yl)-3-chlorophenyl]pyridine-3-carboxamide], for which the IC50 (at CK2; in assay [1]; on CDC7 (setting [2])) was less than 10 µM in each case.
As for `Cc1ccc2oc3c(=O)[nH]c(CN4CC[C@H](O)C4)nc3c2c1N` [Compound 440, 9-amino-2-{[(3S)-3-hydroxypyrrolidin-1-yl]methyl}-8-methyl[1]benzofuro[3,2-d]pyrimidin-4(3H)-one], the IC50 (on CK2; in assay [1]; at CDC7 (setting [2])) was less than 10 µM in each case.
Turning to `CSc1ccc2oc3c(=O)[nH]c(CN4CC[C@H](O)C4)nc3c2c1` [Compound 442, 2-{[(3S)-3-hydroxypyrrolidin-1-yl]methyl}-8-(methylthio)[1]benzofuro[3,2-d]pyrimidin-4(3H)-one], the IC50 is less than 10 µM at CK2, less than 10 µM in assay [1], less than 10 µM on CDC7 (setting [2]) and less than 0.1 µM on CDC7 (setting [3]).
On to `O=c1[nH]c(CN2CC[C@H](O)C2)nc2c1oc1ccc(NCCc3cccc(Cl)c3)cc12` [Compound 444, 8-{[2-(3-chlorophenyl)ethyl]amino}-2-{[(3S)-3-hydroxypyrrolidin-1-yl]methyl}[1]benzofuro[3,2-d]pyrimidin-4(3H)-one], for which the half-maximal inhibitory concentration (IC50) (on CK2; in assay [1]; on CDC7 (setting [2])) was less than 10 µM throughout.
With `COc1c(Br)ccc2oc3c(=O)[nH]c(CN4CC[C@H](O)C4)nc3c12` [Compound 447, 8-bromo-2-{[(3S)-3-hydroxypyrrolidin-1-yl]methyl}-9-(methyloxy)[1]benzofuro[3,2-d]pyrimidin-4(3H)-one], the IC50 (at CK2; in assay [1]; on CDC7 (setting [2])) was less than 10 µM in each case.
Turning to `COc1cccc2oc3c(=O)[nH]c(CN4CC[C@H](O)C4)nc3c12` [Compound 448, 2-{[(3S)-3-hydroxypyrrolidin-1-yl]methyl}-9-(methyloxy)[1]benzofuro[3,2-d]pyrimidin-4(3H)-one], the IC50 (on CK2; in assay [1]; at CDC7 (setting [2])) was less than 10 µM each time.
In the case of `COc1ccc2oc3c(=O)[nH]c(CN4CC[C@H](O)C4)nc3c2c1` [Compound 451, 2-{[(3S)-3-hydroxypyrrolidin-1-yl]methyl}-8-(methyloxy)[1]benzofuro[3,2-d]pyrimidin-4(3H)-one], the IC50 (on CK2; in assay [1]; on CDC7 (setting [2])) was less than 10 µM each time.
As for `O=c1c2oc3ccc(Br)cc3c2nc2n1CN1CCC[C@H]21` [Compound 452, (13bR)-11-bromo-1,2,3,13b-tetrahydro-7H-[1]benzofuro[3,2-d]pyrrolo[1′,2′:3,4]imidazo[1,5-a]pyrimidin-7-one], the 50% inhibitory concentration (IC50) at CK2 is less than 10 µM; in assay [1], less than 10 µM; at CDC7 (setting [2]) it was less than 10 µM; at CDC7 (setting [3]) it was less than 0.1 µM.
